Values of other authors in patent US20070293700A1, “Process for the Preparation of Gabapentin” (Zambon Group S.P.A., priority 2004, published 2007).
Where two headings read alike, the source gives them in different places.

Legend:
[1] = pH at which the isoelectric point is reached

Q: Which “isoelectric point (pH)” value [1] does the source give for `NCC1(CC(=O)O)CCCCC1` [gabapentin, 1-(aminomethyl)-cyclohexaneacetic acid] here?
A: 7.14

Q: What about the solubility in water (0° C.) of the same molecule?
A: about 8.5%

Q: And the solubility in water (temperature of 20° C.)?
A: ~11%
